pIC50: −log10 of the molar value. Read-outs that look alike come from different tables or passages of the source.
Legend:
MMP-1 = target: T1, MMP-1 (Homo sapiens, UniProt P03956); test: In vitro collagenase assay (fluorogenic peptide substrate); assay type: biochemical; details: human recombinant fibroblast collagenase
T1 construct: human recombinant fibroblast collagenase (truncated, mw=18,828)
T1 sequence (P03956 100-269 limits assumed): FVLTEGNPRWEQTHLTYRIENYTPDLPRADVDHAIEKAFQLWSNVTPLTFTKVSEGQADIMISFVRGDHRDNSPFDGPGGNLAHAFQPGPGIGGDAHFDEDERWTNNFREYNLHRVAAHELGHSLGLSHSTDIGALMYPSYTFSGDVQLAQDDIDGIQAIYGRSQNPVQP
Description: In Vitro Collagenase Assay
This assay was based on the cleavage of a peptide substrate ((Dnp-Pro-Cha-Gly-Cys(Me)-His-Ala-Lys(NMa)-NH2), available from Peptide International, Inc.) by collagenase releasing the fluorescent NMa group which was quantitated on the fluorometer as disclosed in Bickett et al., “A High Throughput Fluorogenic Substrate for Interstitial Collagenase (MMP-1) and Gelatinase (MMP-9)”, Anal. Biochem., 212:58-64, (1993). Dnp quenches the NMa fluorescence in the intact substrate.
The assay was run in HCBC assay buffer (50 mM HEPES, pH 7.0, 5 mM Ca^+2, 0.02% Brij, 0.5% Cysteine), with human recombinant fibroblast collagenase (truncated, mw=18,828, from Wyeth-Ayerst Research, Radnor, Pa.). The substrate was dissolved in methanol and stored frozen in 1 mM aliquots. Collagenase was stored frozen in buffer in 25 μM aliquots. In conducting the assay, the substrate was dissolved in HCBC buffer to a final concentration of 10 μM and collagenase to a final concentration of 5 nM. The compounds being examined were dissolved in methanol, DMSO, or HCBC. The methanol and DMSO were diluted in HCBC to <1.0%. The compounds were added to a 96 well plate containing enzyme and the reaction was started by the addition of substrate.
(§1) The reaction was read (excitation 340 nm, emission 444 nm) for 10 min. and the increase in fluorescence over time was plotted as a linear line. The slope of the line was calculated representing the reaction rate. The linearity of the reaction rate was confirmed (r^2>0.85). The mean (x±sem) of the control rate was calculated and compared for statistical significance (p<0.05) with drug-treated rates using Dunnett's multiple comparison test.

MMP-9 = target: T2, MMP-9 (Homo sapiens, UniProt P14780); test: In vitro gelatinase assay (thiopeptide substrate, DTNB); assay type: biochemical; details: human neutrophil gelatinase B
T2 construct: human neutrophil gelatinase B; from tissue; host or cells: human neutrophils
T2 sequence (P14780 94-707): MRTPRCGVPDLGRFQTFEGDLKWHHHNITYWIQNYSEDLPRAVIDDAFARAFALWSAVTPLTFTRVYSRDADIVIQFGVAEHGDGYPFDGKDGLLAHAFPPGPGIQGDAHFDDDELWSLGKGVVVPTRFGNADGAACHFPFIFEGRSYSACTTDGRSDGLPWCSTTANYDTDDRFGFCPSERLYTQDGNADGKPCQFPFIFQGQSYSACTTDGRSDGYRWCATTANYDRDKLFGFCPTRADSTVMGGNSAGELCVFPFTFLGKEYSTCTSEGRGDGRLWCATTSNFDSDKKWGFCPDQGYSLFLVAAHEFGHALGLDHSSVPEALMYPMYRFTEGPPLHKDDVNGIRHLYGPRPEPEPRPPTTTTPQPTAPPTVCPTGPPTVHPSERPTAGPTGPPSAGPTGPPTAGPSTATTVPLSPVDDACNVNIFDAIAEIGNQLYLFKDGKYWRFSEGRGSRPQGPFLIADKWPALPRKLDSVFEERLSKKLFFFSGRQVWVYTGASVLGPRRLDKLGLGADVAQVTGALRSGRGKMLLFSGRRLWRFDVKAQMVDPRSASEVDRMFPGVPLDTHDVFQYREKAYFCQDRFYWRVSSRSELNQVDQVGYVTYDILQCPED
Procedure: In Vitro Gelatinase Assay
The assay is based on the cleavage of the thiopeptide substrate ((Ac-Pro-Leu-Gly(2-mercapto-4-methyl-pentanoyl)-Leu-Gly-OEt), available from Bachem Bioscience) by the enzyme gelatinase, releasing the substrate product which reacts calorimetrically with DTNB ((5,5′-dithio-bis(2-nitro-benzoic acid)). This assay is disclosed in Weingarten et al., “Spectrophotometric Assay for Vertebrate Collegenase”, Anal. Biochem., 147:437-440, (1985). The enzyme activity is measured by the rate of the color increase.
The thiopeptide substrate was made up fresh as a 20 mM stock in 100% DMSO and the DTNB was dissolved in 100% DMSO as a 100 mM stock and stored in the dark at room temperature. The substrate and the DTNB were diluted together to 1 mM with substrate buffer (50 mM HEPES, pH 7.5, 5 mM CaCl2) before use. The stock of human neutrophil gelatinase B was diluted with assay buffer (50 mM HEPES, pH 7.5, 5 mM CaCl2, 0.02% Brij) to a final concentration of 0.15 nM.
The assay buffer, enzyme, DTNB/substrate (500 μM final concentration) and vehicle or inhibitor were added to a 96 well plate (total reaction volume of 200 μl) and the increase in color was monitored spectrophotometrically for 5 minutes at 405 nm on a plate reader.
The increase in OD405 was plotted and the slope of the line was calculated. The slope represents the reaction rate. The linearity of the reaction rate was confirmed (r^2>0.85) and the mean (x±sem) of the control rate was calculated and compared for statistical significance (p<0.05) with drug-treated rates using Dunnett's multiple comparison test.

MMP-13 = MMP-13 (Homo sapiens, UniProt P45452); test: MMP-13 inhibition; assay type: biochemical; details: for IC50: read-out: IC50 (nM) MMP-13
TACE = target: T3, TACE (Homo sapiens, UniProt P78536); test: Procedure for measuring TACE inhibition (fluorescent peptidyl substrate); assay type: biochemical; details: for IC50: read-out: IC50 (nM) TACE
T3 construct: purchased Immunex
T3 sequence (P78536 215-824): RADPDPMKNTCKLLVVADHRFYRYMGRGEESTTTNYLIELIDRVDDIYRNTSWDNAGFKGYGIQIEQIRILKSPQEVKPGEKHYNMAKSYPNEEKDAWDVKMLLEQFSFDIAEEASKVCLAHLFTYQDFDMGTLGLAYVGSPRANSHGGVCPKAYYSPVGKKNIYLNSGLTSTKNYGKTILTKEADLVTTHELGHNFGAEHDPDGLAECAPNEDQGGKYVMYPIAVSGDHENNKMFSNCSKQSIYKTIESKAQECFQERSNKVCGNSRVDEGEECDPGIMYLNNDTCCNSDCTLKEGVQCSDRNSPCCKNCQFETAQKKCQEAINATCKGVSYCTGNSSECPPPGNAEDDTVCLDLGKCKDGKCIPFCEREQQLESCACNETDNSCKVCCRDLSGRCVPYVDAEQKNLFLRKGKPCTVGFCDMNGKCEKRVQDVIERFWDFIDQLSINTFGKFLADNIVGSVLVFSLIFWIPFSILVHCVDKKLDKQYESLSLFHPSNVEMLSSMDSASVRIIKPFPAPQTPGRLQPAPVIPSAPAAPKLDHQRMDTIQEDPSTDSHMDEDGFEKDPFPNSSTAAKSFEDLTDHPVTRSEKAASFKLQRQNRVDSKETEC
Procedure: Procedure for Measuring TACE Inhibition
The plates were incubated for 10 minutes at room temperature. The reaction was initiated by addition of a fluorescent peptidyl substrate (final concentration 100 μM) to each well with shaking on a shaker for 5 sec.
as §1, with “420” for “444”, “and this represents” for “representing”, “The linearity of the reaction rate was confirmed (r^2>0.85).” left out

IC50 (MMP-1) | IC50 (MMP-9) | IC50 (MMP-13) | pIC50 (MMP-13) | pIC50 (TACE) | melting point | SMILES | IC50 (TACE)
841 nM | 33 nM | 29 nM |  |  |  | CC#CCOc1ccc(S(=O)(=O)N2Cc3ccccc3N(C(=O)C3CC3)CC2C(=O)NO)cc1 (centres unmarked) [Example 58, 1-Cyclopropylcarbonyl-4-(4-but-ynyloxybenzenesulfonyl)-2,3,4,5-tetrahydro-1H-[1,4]benzodiazepine-3-carboxylic acid, hydorxyamide] | 
250 nM | 24 nM | 8 nM |  |  |  | CC#CCOc1ccc(S(=O)(=O)N2Cc3ccccc3N(C(=O)c3cccs3)CC2C(=O)NO)cc1 (centres unmarked) [Example 2, 4-(4-But-2-ynyloxybenzenesulfonyl)-1-(2-thienylcarbonyl)-2,3,4,5-tetrahydro-1H-[1,4]benzodiazepine-3-carboxylic acid, hydroxyamide] | 38 nM
 |  | 10 nM |  |  |  | CC#CCOc1ccc(S(=O)(=O)N2Cc3ccccc3N(C(=O)c3ccccc3)CC2C(=O)NO)cc1 (centres unmarked) [Example 3, 1-Benzoyl-4-(4-but-2-ynyloxybenzenesulfonyl)-2,3,4,5-tetrahydro-1H-[1,4]-benzodiazepine-3-carboxylic acid, hydroxyamide] | 
125 nM | 2 nM |  | 8.15 | 7.48 | 119 to 120 °C | CC#CCOc1ccc(S(=O)(=O)N2Cc3ccccc3N(C(=O)c3ccco3)CC2C(=O)NO)cc1 (centres unmarked) [Example 57, 4-(4-But-2-ynyloxybenzenesulfonyl)-1-(2-furanylcarbonyl)-2,3,4,5-tetrahydro-1H-[1,4]benzodiazepine-3-carboxylic acid hydroxyamide] | 

SMILES | IC50 (MMP-1) | IC50 (MMP-9) | IC50 (MMP-13) | pIC50 (MMP-13) | pIC50 (TACE) | melting point | IC50 (TACE)
CC#CCOc1ccc(S(=O)(=O)N2Cc3ccccc3N(C(C)=O)CC2C(=O)NO)cc1 (centres unmarked) [Example 1, 1-Acetyl-4-(4-but-2-ynyloxbenzenesulfonyl)-2,3,4,5-tetrahydro-1H-[1,4]benzodiazepine-3-carboxylic acid, hydroxyamide] | 835 nM | 228 nM | 77 nM |  |  |  | 16 nM
